Laboratory results reported in paper PMC12549899 (Nature Communications, 2025).
Several values for one entry are separate records, joined by “and”; a condition that tells them apart may be missing. Equal entries are not always repeated.

Biological target: T1, DrOTOP1 M573W (Danio rerio, UniProt Q7ZWK8, M573W)
T1 construct: A previously generated codon-optimized full-length DrOTOP1[8]; (UniProt: Q7ZWK8) construct; expressed in transfected cells; host or cells: HEK-293 (CRL-1573, ATCC)
T1 sequence (Q7ZWK8 1-586 M573W): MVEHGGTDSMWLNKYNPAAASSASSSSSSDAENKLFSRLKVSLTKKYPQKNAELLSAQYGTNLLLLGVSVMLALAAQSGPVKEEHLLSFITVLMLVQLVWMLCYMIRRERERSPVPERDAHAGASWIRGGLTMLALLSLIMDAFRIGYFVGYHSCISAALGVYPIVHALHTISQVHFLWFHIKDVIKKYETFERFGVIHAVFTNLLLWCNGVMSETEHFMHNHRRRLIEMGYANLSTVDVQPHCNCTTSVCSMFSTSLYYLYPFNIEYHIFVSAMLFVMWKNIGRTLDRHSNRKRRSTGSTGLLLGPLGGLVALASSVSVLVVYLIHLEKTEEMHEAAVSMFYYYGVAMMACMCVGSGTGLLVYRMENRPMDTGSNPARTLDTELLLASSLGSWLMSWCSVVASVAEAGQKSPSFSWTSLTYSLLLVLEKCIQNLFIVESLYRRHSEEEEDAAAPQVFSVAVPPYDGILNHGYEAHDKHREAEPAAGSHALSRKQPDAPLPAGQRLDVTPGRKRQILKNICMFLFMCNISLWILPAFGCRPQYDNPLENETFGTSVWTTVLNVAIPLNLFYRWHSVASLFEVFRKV
Test: Whole-cell patch-clamp, inhibition of acid-evoked currents, DrOTOP1 M573W (outer site)
Format: cell-based, zebrafish (Danio rerio)
Text: To functionally test the significance of the two binding sites identified by cryo-EM, we generated point mutations of DrOTOP1 using the binding poses and conformational changes observed in DrOTOP1_C2.2 to guide our mutations. As per the binding pose that best fits our cryo-EM density, C2.2 forms the following interactions in the outer site: hydrophobic packing against many non-polar residues W126, G130, M133, L134, F271, F570, and M573, and π-stacking with W532 (Fig. 5A). In addition, C2.2 could potentially form H-bonds with E267, if the sidechain is protonated or a water bridge is present, and with H574 if it moves closer (Fig. 5A). Likewise, C2.36 presents a heterocyclic nitrogen that can potentially form a H-bond with E267, similarly, provided a protonation or water bridge is present (Fig. 5B). In addition, C2.36 forms a T-shaped π-stacking interaction with H574, whose sidechain has rotated 90 degrees (compared to DrOTOP1_apo), presumably to accommodate the interaction (Fig. 5B). Considering other inhibitors discovered from the second round of screening, many contain functional groups like the carbonyl groups of Group 1 molecules and the heterocyclic nitrogen atoms of Group 2 molecules (Supplementary Fig. 3E), that can potentially form similar H-bonds with E267 as C2.2 and C2.36, assuming the binding modes are similar. In the central site, C2.2 binds with the following interactions: hydrophobic packing with residues V201, F271, A274, V278, and A388, π-stacking with F277, and H-bonding with E384 (Fig. 5C).
Each non-aromatic residue was mutated to tryptophan, which was expected to cause steric occlusion. […] This seemed appropriate given the small number of H-bonds in these pockets, the ambiguity of how the inhibitors fit the density, and the prevalence of hydrophobic packing interactions (Fig. 5A–C).
HEK-293 cells (CRL-1573, ATCC) were cultured in DMEM (Thermofisher 11995073) containing 10% fetal bovine serum (Life Technology 16000044) and Penicillin-Streptomycin (100 I.U./mL) and (100 µg/mL), respectively. Cells were transfected with WT DrOTOP1 or mutant DrOTOP1 channels in 35 mm petri dishes, with ~ 500 ng DNA and 2 μL TransIT-LT1 transfection reagent (Mirus Bio Corporation, Cat # MIR2300) following the manufacturer’s protocol. All constructs were subcloned into a pcDNA3.1 vector that adds an N-terminal fusion tag consisting of an octahistidine tag followed by eGFP, a Gly-Thr-Gly-Thr linker and a 3C protease cleavage site ([…]) followed by WT DrOTOP1, WT mOTOP1, WT hOTOP1, or mutated DrOTOP1. Point mutations were generated via In-Fusion Cloning (Takara) using single-stranded DNA primers generated through IDT and sequence confirmed by Sanger sequencing (GeneWiz).
Whole-cell patch-clamp recording was performed as previously described[6],[22],[25]. Recordings were made with an Axopatch 200B amplifier, digitized with a Digidata 1322a 16-bit data acquisition system, acquired with pClamp 8.2 and analyzed with Clampfit 10 (Molecular Devices). Recordings were sampled at 5 kHz and filtered at 1 kHz. Patch Pipettes with resistance of […] were fabricated from borosilicate glass, and only recordings with a giga-Ohm seal were used in analysis. Membrane potential was held at −80 mV for the duration of recordings. At the beginning of recordings and between, cells were washed with Tyrode’s solution (see below). Once a giga-Ohm seal was reached, cells were lifted and placed in front of microcapillary tubes controlled by a Fast-Step perfusion system (Warner Instruments) so that extracellular solutions could be rapidly exchanged during each experiment.
Standard Tyrode’s solution consisted of 145 mM NaCl, 5 mM KCl, MgCl2, 2 mM CaCl2, 20 mM D-Glucose, and 10 mM HEPES (for pH 7.4). All other extracellular patch-clamp solutions contained 160 mM NMDG-Cl, 2 mM CaCl2, and the following buffers: 10 mM HEPES (for pH 7.4), 10 mM MES (for pH 6.5-5.5), 10 mM CHES for pH 10, and 10 mM HomoPIPES for (pH 5.0). pH adjusted with HCl. […]

SMILES | Inhibition of currents (100 µM, single cells) | inhibition at 100 µM (100 µM, single cells) [%] | Hill coefficient | inhibition at 3 µM (3 µM, single cells) [%] | inhibition at 30 µM (30 µM, single cells) [%] | inhibition at 300 µM (300 µM, single cells) [%] | IC50 (pH 5.5) [µM]
O=C(/C(=N\O)c1ccccc1)c1ccccc1 [C11, benzil monoxime] | 53.3175% and 66.3617% and 67.3077% and 51.54% | 51.6 | – | – | – | – | –
C=C(C)COc1ccccc1NC(=O)c1nc[nH]c1C [C2.2] | – | 84.3 | 1.238 | 4.02 | 46.6 | 91.4 | 30.4
